Laboratory results reported in patent publication US20120077836A1, “METHODS OF ADMINISTERING (4AR,10AR)-1-N-PROPYL-1,2,3,4,4A,5,10,10A-OCTAHYDROBENZO [G] QUINOLINE-6,7-DIOL AND RELATED COMPOUNDS ACROSS THE ORAL MUCOSA, THE NASAL MUCOSA OR THE SKIN AND PHARMACEUTICAL COMPOSITIONS THEREOF” (priority 2009, published 2012).
Where a name gives a salt, the structure may show the parent alone.

Columns and labels:
[1] = system: 6-OHDA rats; experiment: Reversal of L-DOPA-induced dyskinesias in 6-OHDA rats (AIMS); format: in vivo, rat
Source text: Animals were observed on Days 1, 3 and 5 and AIMS were scored. The day 5 scores were then used to separate the animals into three groups of 6 animals each. Group 1 continued with daily L-DOPA treatment. […] Treatment continued daily for 10 days and the amount of dyskinesia was scored on days 1, 5, 9 and 10.

[2] = system: rats with unilateral 6-OHDA lesions; experiment: Rotation response in 6-OHDA rats after buccal delivery; format: in vivo, rat
[3] = target: T1, human D2 receptor (Homo sapiens, UniProt P14416); experiment: D2 cAMP assay; format: cell-based
T1 construct: expressed in transfected cells; host or cells: CHO cells
T1 sequence (P14416 whole entry): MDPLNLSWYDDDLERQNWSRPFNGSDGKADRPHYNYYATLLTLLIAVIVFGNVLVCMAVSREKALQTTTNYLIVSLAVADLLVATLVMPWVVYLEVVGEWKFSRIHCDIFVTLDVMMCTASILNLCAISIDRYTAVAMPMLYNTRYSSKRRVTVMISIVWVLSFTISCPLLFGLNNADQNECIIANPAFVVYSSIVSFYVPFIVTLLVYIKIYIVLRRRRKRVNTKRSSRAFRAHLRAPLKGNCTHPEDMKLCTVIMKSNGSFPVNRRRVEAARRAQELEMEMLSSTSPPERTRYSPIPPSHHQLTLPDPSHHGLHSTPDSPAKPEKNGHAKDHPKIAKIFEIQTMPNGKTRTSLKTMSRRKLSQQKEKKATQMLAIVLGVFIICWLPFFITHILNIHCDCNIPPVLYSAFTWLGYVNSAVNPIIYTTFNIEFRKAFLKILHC
Experimental: The ability of the compounds to either stimulate or inhibit the D2 receptor mediated inhibition of cAMP formation in CHO cells transfected with the human D2 receptor was measured as follows. Cells were seeded in 96 well plates at a concentration of 8000 cells/well 3 days prior to the experiment. On the day of the experiment the cells were washed once in preheated G buffer (1 mM MgCl2, 0.9 mM CaCl2, 1 mM IBMX in PBS) and the assay was initiated by addition of 100 micro-1 of a mixture of 1 micro-M quinpirole, 10 microM forskolin and test compound in G buffer (antagonism) or 10 micro-M forskolin and test compound in G buffer (agonism).

With `CCCN1CCC[C@@H]2Cc3c(ccc(O)c3O)C[C@H]21` [compound 10, (4aR,10aR)-1-n-Propyl-1,2,3,4,4a,5,10,10a-octahydro-benzo[g]quinoline-6,7-diol hydrobromide] the “dyskinesias versus other groups (two-way repeated measures ANOVA)” value ([1]; L-DOPA-primed 6-OHDA rats, 10 days treatment) was “significantly fewer dyskinesias than both the pramipexole group and the L-DOPA/Benserazide group”, the “mean AIM score (days 1, 5, 9, 10)” value ([1]; after 7 days L-DOPA/Benserazide priming, once daily days 1-10: L-DOPA/Benserazide 6/15 mg/kg SC, compound 10 0.0013 mg/kg SC, pramipexole […] SC) was 44 and the “mean number of rotations over 3 h” value ([2]; 0.1 mg/kg buccally) was 1203. For the same compound, the induction of rotation ([2]; apomorphine subcutaneous, compound 10 buccal) was “induced circling behavior”, the EC50 [3] was 0.11 nM and the Emax ([3]; read-out: intrinsic activity (efficacy)) was 100%.
